Experimental data published in patent US20020137929A1, “1 - (3-heterocyclylphenyl) isothiourea, -isourea, -guanidine and -amidine herbicidal agents” (Intellectual Property Department, BASF Aktiengesellschaft, priority 1998, published 2002).

Key:
CASOB (Sicklepod) = assay: Preemergence herbicidal evaluation; type: in vivo, Cassia obtusifolia; conditions: rated 4-5 weeks after treatment
Procedure, shortened: (§1)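 In this greenhouse assay, monocot and dicot seeds are planted in soil and treated prior to emergence with an aqueous acetone spray (about 0.0156-0.500 kg/ha). Plants are assessed visually against control on a 0-9 scale after 4-5 weeks.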

[1] = test system: GLXMAW (Soybean, Williams); assay: Preemergence herbicidal evaluation; type: in vivo, Glycine max, (L.) Merr. cv Williams; conditions: rated 4-5 weeks after treatment
Procedure, shortened: as §1

CYPSE (Flatsedge) = assay: Preemergence weed control under flooded paddy conditions; type: in vivo, Cyperus serotinus; conditions: rated 3-4 weeks after treatment
Procedure, shortened: (§2)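 Ratings on a 0-9 visual scale cover stand, vigor, malformation, size, chlorosis and overall appearance relative to a control, taken three to four weeks post-treatment. Application was into flood water over freshly sown silt loam at roughly 0.0313 to 0.500 kg/ha.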

ZEAMX (Corn, Field) = assay: Postemergence herbicidal evaluation; type: in vivo, Zea mays; conditions: postemergence
Procedure, shortened: (§3)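 Two-week seedlings sprayed postemergence at 40 psi; formulation: 1:1 acetone/water, 0.5% TWEEN 20; application ≈0.0156–0.500 kg/ha. Greenhouse grow-out, then 0–9 visual scoring at 4–5 weeks.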

SETVI (Foxtail, Green) = assay: Preemergence herbicidal evaluation; type: in vivo, Setaria viridis; conditions: rated 4-5 weeks after treatment
Procedure, shortened: as §1

ABUTH (Velvetleaf) = assay: Preemergence herbicidal evaluation; type: in vivo, Abutilon theophrasti; conditions: rated 4-5 weeks after treatment
Procedure, shortened: as §1

GALAP (Galium) = assay: Preemergence herbicidal evaluation; type: in vivo, Galium aparine; conditions: rated 4-5 weeks after treatment
Procedure, shortened: as §1

[2] = test system: GLXMAW (Soybean, Williams); assay: Postemergence herbicidal evaluation; type: in vivo, Glycine max, (L.) Merr. cv Williams; conditions: postemergence
Procedure, shortened: as §3

[3] = test system: IPOHE (Morningglory, Ivyleaf); assay: Postemergence herbicidal evaluation; type: in vivo, Ipomoea hederacea; conditions: postemergence
Procedure, shortened: as §3

[4] = test system: SAGPY (Arrowhead (Pygmaea)); assay: Preemergence weed control under flooded paddy conditions; type: in vivo, Sagittaria pygmaea; conditions: rated 3-4 weeks after treatment
Procedure, shortened: as §2

ECHCG (Barnyardgrass) = assay: Preemergence herbicidal evaluation; type: in vivo, Echinochloa crus-galli; conditions: rated 4-5 weeks after treatment
Procedure, shortened: as §1

AMBEL (Ragweed, Common) [5] = assay: Postemergence herbicidal evaluation; type: in vivo, Ambrosia artemisifolia; conditions: postemergence
Procedure, shortened: as §3

AMBEL (Ragweed, Common) [6] = assay: Preemergence herbicidal evaluation; type: in vivo, Ambrosia artemisifolia; conditions: rated 4-5 weeks after treatment
Procedure, shortened: as §1

[7] = rate 0.0313 kg/ha, rating scale 0-9
[8] = rate 0.0625 kg/ha, rating scale 0-9
[9] = rate 0.1250 kg/ha, rating scale 0-9
[10] = rate 0.2500 kg/ha, rating scale 0-9

Cn1c(C(F)(F)F)cc(=O)n(-c2cc(N=C3SCC(=O)N3Cc3cc(Cl)cc(Cl)c3)c(Cl)cc2F)c1=O [Compound 150, 3-{4-Chloro-5-{[3-(3,5-dichlorobenzyl)-4-oxo-2-thiazolidinylidene]amino}-2-fluorophenyl}-1-methyl-6-(trifluoromethyl)-2,4(1H,3H)-pyrimidinedione]
Preemergence herbicidal rating CASOB (CASOB (Sicklepod); [7]): 0.0 | Preemergence herbicidal rating CASOB (CASOB (Sicklepod); [8]): 2.0 | Preemergence herbicidal rating CASOB (CASOB (Sicklepod); [9]): 1.0 | Preemergence herbicidal rating CASOB (CASOB (Sicklepod); [10]): 2.0 | Preemergence herbicidal rating GLXMAW [1, 7]: 0.0 | Preemergence herbicidal rating GLXMAW [1, 8]: 0.0 | Preemergence herbicidal rating GLXMAW [1, 9]: 0.0 | Preemergence herbicidal rating GLXMAW [1, 10]: 2.0 | herbicidal effect rating, CYPSE (CYPSE (Flatsedge); 0.1250 kg/ha): 9.0 | herbicidal effect rating, CYPSE (CYPSE (Flatsedge); 0.2500 kg/ha): 9.0 | Herbicidal rating ZEAMX (ZEAMX (Corn, Field); rate 0.0156 kg/ha): 4.0 | Herbicidal rating ZEAMX (ZEAMX (Corn, Field); rate 0.0313 kg/ha): 4.0 | Herbicidal rating ZEAMX (ZEAMX (Corn, Field); rate 0.0625 kg/ha): 4.0 | Preemergence herbicidal rating SETVI (SETVI (Foxtail, Green); [7]): 0.0 | Preemergence herbicidal rating SETVI (SETVI (Foxtail, Green); [8]): 0.0 | Preemergence herbicidal rating SETVI (SETVI (Foxtail, Green); [9]): 4.0 | Preemergence herbicidal rating SETVI (SETVI (Foxtail, Green); [10]): 9.0 | Preemergence herbicidal rating ABUTH (ABUTH (Velvetleaf); [7]): 0.0 | Preemergence herbicidal rating ABUTH (ABUTH (Velvetleaf); [8]): 4.0 | Preemergence herbicidal rating ABUTH (ABUTH (Velvetleaf); [9]): 9.0 | Preemergence herbicidal rating ABUTH (ABUTH (Velvetleaf); [10]): 9.0 | Preemergence herbicidal rating GALAP (GALAP (Galium); [7]): 0.0 | Preemergence herbicidal rating GALAP (GALAP (Galium); [8]): 0.0 | Preemergence herbicidal rating GALAP (GALAP (Galium); [9]): 0.0 | Preemergence herbicidal rating GALAP (GALAP (Galium); [10]): 2.0 | Herbicidal rating GLXMAW ([2]; rate 0.0156 kg/ha): 5.0 | Herbicidal rating GLXMAW ([2]; rate 0.0313 kg/ha): 5.5 | Herbicidal rating GLXMAW ([2]; rate 0.0625 kg/ha): 6.0 | Herbicidal rating IPOHE ([3]; rate 0.0156 kg/ha): 9.0 | Herbicidal rating IPOHE ([3]; rate 0.0313 kg/ha): 9.0 | Herbicidal rating IPOHE ([3]; rate 0.0625 kg/ha): 9.0 | herbicidal effect rating, SAGPY ([4]; 0.0313 kg/ha): 0.0 | herbicidal effect rating, SAGPY ([4]; 0.0625 kg/ha): 2.0 | herbicidal effect rating, SAGPY ([4]; 0.1250 kg/ha): 2.0 | herbicidal effect rating, SAGPY ([4]; 0.2500 kg/ha): 2.0 | Preemergence herbicidal rating ECHCG (ECHCG (Barnyardgrass); [7]): 0.0 | Preemergence herbicidal rating ECHCG (ECHCG (Barnyardgrass); [8]): 0.0 | Preemergence herbicidal rating ECHCG (ECHCG (Barnyardgrass); [9]): 2.0 | Preemergence herbicidal rating ECHCG (ECHCG (Barnyardgrass); [10]): 4.0 | Herbicidal rating AMBEL (AMBEL (Ragweed, Common) [5]; rate 0.0156 kg/ha): 7.0 | Herbicidal rating AMBEL (AMBEL (Ragweed, Common) [5]; rate 0.0313 kg/ha): 9.0 | Herbicidal rating AMBEL (AMBEL (Ragweed, Common) [5]; rate 0.0625 kg/ha): 9.0 | Preemergence herbicidal rating AMBEL (AMBEL (Ragweed, Common) [6]; [7]): 0.0 | Preemergence herbicidal rating AMBEL (AMBEL (Ragweed, Common) [6]; [8]): 0.0 | Preemergence herbicidal rating AMBEL (AMBEL (Ragweed, Common) [6]; [9]): 3.0 | Preemergence herbicidal rating AMBEL (AMBEL (Ragweed, Common) [6]; [10]): 7.0

Cc1ccccc1CN1C(=O)CSC1=Nc1cc(-n2c(=O)cc(C(F)(F)F)n(C)c2=O)c(F)cc1Cl [Compound 129, 3-{4-Chloro-2-fluoro-5-{[3-(o-methylbenzyl)-4-oxo-2-thiazolidinylidene]amino}phenyl}-1-methyl-6-(trifluoromethyl)-2,4 (1H,3H)-pyrimidinedione]
Preemergence herbicidal rating CASOB (CASOB (Sicklepod); rate 0.0156 kg/ha): 1.0 | Preemergence herbicidal rating CASOB (CASOB (Sicklepod); rate 0.0313 kg/ha): 1.0 | Preemergence herbicidal rating CASOB (CASOB (Sicklepod); rate 0.0625 kg/ha): 1.0 | Preemergence herbicidal rating CASOB (CASOB (Sicklepod); rate 0.1250 kg/ha): 7.0 | Preemergence herbicidal rating CASOB (CASOB (Sicklepod); rate 0.2500 kg/ha): 8.0 | Preemergence herbicidal rating GLXMAW ([1]; rate 0.0156 kg/ha): 0.0 | Preemergence herbicidal rating GLXMAW ([1]; rate 0.0313 kg/ha): 0.0 | Preemergence herbicidal rating GLXMAW ([1]; rate 0.0625 kg/ha): 2.0 | Preemergence herbicidal rating GLXMAW ([1]; rate 0.1250 kg/ha): 2.0 | Preemergence herbicidal rating GLXMAW ([1]; rate 0.2500 kg/ha): 4.0 | herbicidal effect rating, CYPSE (CYPSE (Flatsedge); 0.1250 kg/ha): 7.0 | herbicidal effect rating, CYPSE (CYPSE (Flatsedge); 0.2500 kg/ha): 9.0 | Herbicidal rating ZEAMX (ZEAMX (Corn, Field); rate 0.0156 kg/ha): 4.0 | Herbicidal rating ZEAMX (ZEAMX (Corn, Field); rate 0.0313 kg/ha): 4.5 | Herbicidal rating ZEAMX (ZEAMX (Corn, Field); rate 0.0625 kg/ha): 4.5 | Preemergence herbicidal rating SETVI (SETVI (Foxtail, Green); rate 0.0156 kg/ha): 1.0 | Preemergence herbicidal rating SETVI (SETVI (Foxtail, Green); rate 0.0313 kg/ha): 1.0 | Preemergence herbicidal rating SETVI (SETVI (Foxtail, Green); rate 0.0625 kg/ha): 1.0 | Preemergence herbicidal rating SETVI (SETVI (Foxtail, Green); rate 0.1250 kg/ha): 6.0 | Preemergence herbicidal rating SETVI (SETVI (Foxtail, Green); rate 0.2500 kg/ha): 7.0 | Preemergence herbicidal rating ABUTH (ABUTH (Velvetleaf); rate 0.0156 kg/ha): 0.0 | Preemergence herbicidal rating ABUTH (ABUTH (Velvetleaf); rate 0.0313 kg/ha): 1.0 | Preemergence herbicidal rating ABUTH (ABUTH (Velvetleaf); rate 0.0625 kg/ha): 9.0 | Preemergence herbicidal rating ABUTH (ABUTH (Velvetleaf); rate 0.1250 kg/ha): 9.0 | Preemergence herbicidal rating ABUTH (ABUTH (Velvetleaf); rate 0.2500 kg/ha): 9.0 | Preemergence herbicidal rating GALAP (GALAP (Galium); rate 0.0156 kg/ha): 1.0 | Preemergence herbicidal rating GALAP (GALAP (Galium); rate 0.0313 kg/ha): 1.0 | Preemergence herbicidal rating GALAP (GALAP (Galium); rate 0.0625 kg/ha): 1.0 | Preemergence herbicidal rating GALAP (GALAP (Galium); rate 0.1250 kg/ha): 0.0 | Preemergence herbicidal rating GALAP (GALAP (Galium); rate 0.2500 kg/ha): 0.0 | Herbicidal rating GLXMAW ([2]; rate 0.0156 kg/ha): 5.0 | Herbicidal rating GLXMAW ([2]; rate 0.0313 kg/ha): 5.0 | Herbicidal rating GLXMAW ([2]; rate 0.0625 kg/ha): 6.0 | Herbicidal rating IPOHE ([3]; rate 0.0156 kg/ha): 9.0 | Herbicidal rating IPOHE ([3]; rate 0.0313 kg/ha): 9.0 | Herbicidal rating IPOHE ([3]; rate 0.0625 kg/ha): 9.0 | herbicidal effect rating, SAGPY ([4]; 0.0313 kg/ha): 0.0 | herbicidal effect rating, SAGPY ([4]; 0.0625 kg/ha): 0.0 | herbicidal effect rating, SAGPY ([4]; 0.1250 kg/ha): 2.0 | herbicidal effect rating, SAGPY ([4]; 0.2500 kg/ha): 7.0 | Preemergence herbicidal rating ECHCG (ECHCG (Barnyardgrass); rate 0.0156 kg/ha): 0.0 | Preemergence herbicidal rating ECHCG (ECHCG (Barnyardgrass); rate 0.0313 kg/ha): 0.0 | Preemergence herbicidal rating ECHCG (ECHCG (Barnyardgrass); rate 0.0625 kg/ha): 0.0 | Preemergence herbicidal rating ECHCG (ECHCG (Barnyardgrass); rate 0.1250 kg/ha): 1.0 | Preemergence herbicidal rating ECHCG (ECHCG (Barnyardgrass); rate 0.2500 kg/ha): 0.0 | Herbicidal rating AMBEL (AMBEL (Ragweed, Common) [5]; rate 0.0156 kg/ha): 9.0 | Herbicidal rating AMBEL (AMBEL (Ragweed, Common) [5]; rate 0.0313 kg/ha): 9.0 | Herbicidal rating AMBEL (AMBEL (Ragweed, Common) [5]; rate 0.0625 kg/ha): 9.0 | Preemergence herbicidal rating AMBEL (AMBEL (Ragweed, Common) [6]; rate 0.0156 kg/ha): 0.0 | Preemergence herbicidal rating AMBEL (AMBEL (Ragweed, Common) [6]; rate 0.0313 kg/ha): 0.0 | Preemergence herbicidal rating AMBEL (AMBEL (Ragweed, Common) [6]; rate 0.0625 kg/ha): 0.0 | Preemergence herbicidal rating AMBEL (AMBEL (Ragweed, Common) [6]; rate 0.1250 kg/ha): 7.0 | Preemergence herbicidal rating AMBEL (AMBEL (Ragweed, Common) [6]; rate 0.2500 kg/ha): 7.0
